Measured values reported in patent US11890287B2, “Therapeutic compounds and compositions for treating social disorders and substance use disorders” (Kinoxis Therapeutics Pty Ltd, priority 2015, dated 2024).

How the values were obtained:
[1] = In vitro plasma stability assay; type: in vitro ADME; conditions: human, incubated at body temperature
V2 = V2 (Homo sapiens, UniProt P30518); test: Orthosteric binding, AVP receptors
OTR = target: T1, OTR (Homo sapiens, UniProt P30559); test: IP1 signalling on OTR HEK cells; type: cell-based
T1 construct: expressed in transfected cells; host or cells: HEK cells
T1 sequence (P30559 whole entry): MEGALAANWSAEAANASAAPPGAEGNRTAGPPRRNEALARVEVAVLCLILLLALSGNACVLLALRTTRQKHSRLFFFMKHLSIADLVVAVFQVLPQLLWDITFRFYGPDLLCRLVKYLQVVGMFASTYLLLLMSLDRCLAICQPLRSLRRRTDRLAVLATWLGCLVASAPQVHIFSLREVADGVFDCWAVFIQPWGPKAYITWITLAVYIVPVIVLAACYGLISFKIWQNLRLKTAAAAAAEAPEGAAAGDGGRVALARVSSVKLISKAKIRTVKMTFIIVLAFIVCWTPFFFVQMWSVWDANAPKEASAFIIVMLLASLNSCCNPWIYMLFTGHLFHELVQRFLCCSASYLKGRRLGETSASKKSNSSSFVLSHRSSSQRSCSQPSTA

rat hypothalamic neurons = test: Signalling in rat hypothalamic neurons; type: cell-based
rats = test: Conditioned place preference; conditions: rat, in vivo
Sprague Dawley rats = test: Acute toxicity, single intravenous bolus dose 1-30 mg/kg, one week dose range finding study; type: in vivo; conditions: for Hunched posture or gait- mild (incidence) / Number of abnormalities detected: (incidence) / Palpebral closure- mild/moderate (incidence) / Piloerection- mild (incidence) / Reduced activity- mild (incidence): n 3
Experimental: The acute toxicity of the SOC-1 test item was assessed in Sprague Dawley rats following intravenous administration of a single bolus dose. A total of four groups of n=3 adult female rats were treated with 1, 3, 10 and 30 mg/kg doses of SOC-1. The rats were then observed for 7 days prior to termination on Study Day 8 without necropsy.
The design of this acute single dose toxicity study in rats was adapted from OECD Guideline for Testing of Chemicals No. 420 Acute Oral Toxicity—Fixed Dose Procedure’ 2001 (2) and the test facility Standard Operating Procedure SP_T002 ‘Dose Range Finding Study in Rodents’. The study procedures were conducted as outlined below and according to related test facility Standard Operating Procedures.
Briefly, on completion of the acclimation period the study was commenced with administration of the treatment on Study Day 1. […] Body weights were also collected daily. On Study Day 8 the surviving animals were culled without necropsy.
The test item treatments were administered as a bolus intravenous injection in a dose volume of 2 mL/kg on Study Day 1 with restraint on conscious animals (with the exception of Group 4 where the treatment was administered in a dose volume of 6 mL/kg on lightly anaesthetised animals following the administration of isofluorane anaesthetic).
Morbidity and mortality observations were recorded daily during the acclimation period and on Day 8, and twice daily from Day 1 through Day 7.
Clinical observations were conducted at least once during the acclimation period. Clinical observations were conducted at least once daily from Day 1 up to and including the day prior to termination. On the day of treatment the animals were monitored continuously for the first 30 min post-treatment with formal observations made at 30 minutes, 1 hour and 4 hours post-treatment.
The clinical observations included examination of animals for changes in skin and fur, eyes and mucous membranes, respiratory and circulatory function, gait and posture, behaviour, tremors or convulsions and any other abnormal findings.
The clinical observations also included daily examination of the tail for any injection site reaction (for example, erythema or oedema).
Body weight was recorded once during the acclimation period and daily from the time of treatment on Day 1 to Day 8. The mean body weight values for study days 1-8 are shown as group mean±standard deviation (SD) in FIG. 14.

5-HT7 = target: T2, 5-HT7 (Homo sapiens, UniProt P34969); test: PDSP orthosteric binding screen
T2 construct: Psychoactive Drug Screening Program (PDSP)
T2 sequence (P34969 whole entry, species assumed): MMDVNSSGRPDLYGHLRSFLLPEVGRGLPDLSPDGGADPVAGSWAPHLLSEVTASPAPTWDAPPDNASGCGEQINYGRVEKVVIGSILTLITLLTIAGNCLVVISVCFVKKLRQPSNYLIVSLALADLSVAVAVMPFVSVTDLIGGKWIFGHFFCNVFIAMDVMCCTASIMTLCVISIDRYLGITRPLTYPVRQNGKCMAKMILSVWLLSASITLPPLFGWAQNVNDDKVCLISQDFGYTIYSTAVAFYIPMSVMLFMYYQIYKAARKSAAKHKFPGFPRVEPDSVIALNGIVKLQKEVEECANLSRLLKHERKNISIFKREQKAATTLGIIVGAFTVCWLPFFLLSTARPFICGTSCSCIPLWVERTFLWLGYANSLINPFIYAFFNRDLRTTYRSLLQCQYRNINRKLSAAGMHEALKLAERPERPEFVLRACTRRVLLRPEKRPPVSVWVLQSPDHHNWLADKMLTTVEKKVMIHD
From the text: (§1) Comprehensive screening of affinity for the orthosteric binding sites for numerous receptors from the Psychoactive Drug Screening Program (PDSP) have failed as yet to identify a target, despite the powerful OT-like behavioural effects of the compound evident in vivo and the clear activation of brain OT systems evident from our Fos data.

5-ht1e = target: T3, 5-ht1e (Homo sapiens, UniProt P28566); test: PDSP orthosteric binding screen
T3 construct: Psychoactive Drug Screening Program (PDSP)
T3 sequence (P28566 whole entry, species assumed): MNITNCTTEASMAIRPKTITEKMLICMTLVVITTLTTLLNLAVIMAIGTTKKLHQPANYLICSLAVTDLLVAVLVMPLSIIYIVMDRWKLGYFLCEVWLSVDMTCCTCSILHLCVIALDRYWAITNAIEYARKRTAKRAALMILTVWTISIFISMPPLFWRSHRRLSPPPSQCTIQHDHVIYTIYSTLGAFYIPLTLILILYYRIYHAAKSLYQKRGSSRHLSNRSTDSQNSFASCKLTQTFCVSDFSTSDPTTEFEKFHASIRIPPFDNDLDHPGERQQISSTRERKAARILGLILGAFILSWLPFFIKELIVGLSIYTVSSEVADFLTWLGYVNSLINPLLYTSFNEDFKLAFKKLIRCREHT
From the text: as §1

Alpha2B = target: T4, Alpha2B (Homo sapiens, UniProt P18089); test: PDSP orthosteric binding screen
T4 construct: Psychoactive Drug Screening Program (PDSP)
T4 sequence (P18089 whole entry): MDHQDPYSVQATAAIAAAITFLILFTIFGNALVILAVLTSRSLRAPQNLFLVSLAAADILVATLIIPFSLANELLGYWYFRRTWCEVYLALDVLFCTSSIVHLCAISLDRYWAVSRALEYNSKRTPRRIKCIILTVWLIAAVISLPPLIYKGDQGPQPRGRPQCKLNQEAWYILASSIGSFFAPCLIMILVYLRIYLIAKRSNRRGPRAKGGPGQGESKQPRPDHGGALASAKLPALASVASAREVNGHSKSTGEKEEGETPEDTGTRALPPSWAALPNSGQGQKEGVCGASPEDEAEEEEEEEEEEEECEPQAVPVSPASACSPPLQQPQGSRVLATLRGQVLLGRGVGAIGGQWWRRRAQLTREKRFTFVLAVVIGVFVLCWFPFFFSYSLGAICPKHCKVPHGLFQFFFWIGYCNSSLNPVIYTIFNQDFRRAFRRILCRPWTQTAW
From the text: as §1

BZP Rat Brain Site = test: PDSP orthosteric binding screen
From the text: as §1

Beta1 = target: T5, Beta1 (Homo sapiens, UniProt P08588); test: PDSP orthosteric binding screen
T5 construct: Psychoactive Drug Screening Program (PDSP)
T5 sequence (P08588 whole entry): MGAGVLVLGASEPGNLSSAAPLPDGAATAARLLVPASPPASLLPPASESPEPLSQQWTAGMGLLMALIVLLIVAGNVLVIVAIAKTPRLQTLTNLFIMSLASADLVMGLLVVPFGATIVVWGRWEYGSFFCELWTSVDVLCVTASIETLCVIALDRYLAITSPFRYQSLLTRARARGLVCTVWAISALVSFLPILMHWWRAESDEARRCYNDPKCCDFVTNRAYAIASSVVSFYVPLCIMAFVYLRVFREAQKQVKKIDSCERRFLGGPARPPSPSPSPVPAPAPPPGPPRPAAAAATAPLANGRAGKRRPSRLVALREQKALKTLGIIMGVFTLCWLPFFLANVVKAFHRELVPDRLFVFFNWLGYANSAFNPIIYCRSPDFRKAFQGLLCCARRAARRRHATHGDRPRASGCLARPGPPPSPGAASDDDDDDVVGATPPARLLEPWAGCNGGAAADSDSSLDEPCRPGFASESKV
From the text: as §1

Beta3 = target: T6, Beta3 (Homo sapiens, UniProt P13945); test: PDSP orthosteric binding screen
T6 construct: Psychoactive Drug Screening Program (PDSP)
T6 sequence (P13945 whole entry): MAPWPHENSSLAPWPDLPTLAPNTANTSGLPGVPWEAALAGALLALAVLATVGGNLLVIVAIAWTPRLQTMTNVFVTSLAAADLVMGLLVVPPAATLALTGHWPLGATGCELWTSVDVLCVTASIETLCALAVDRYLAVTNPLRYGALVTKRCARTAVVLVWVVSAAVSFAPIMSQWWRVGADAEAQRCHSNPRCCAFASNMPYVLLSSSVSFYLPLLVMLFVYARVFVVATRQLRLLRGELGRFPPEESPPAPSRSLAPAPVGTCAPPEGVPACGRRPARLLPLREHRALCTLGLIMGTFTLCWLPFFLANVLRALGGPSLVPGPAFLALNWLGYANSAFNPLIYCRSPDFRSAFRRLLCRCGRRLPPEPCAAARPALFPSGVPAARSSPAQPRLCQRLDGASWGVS
From the text: as §1

GABAA = test: PDSP orthosteric binding screen
From the text: as §1

M2 = target: T7, M2 (Homo sapiens, UniProt P08172); test: PDSP orthosteric binding screen
T7 construct: Psychoactive Drug Screening Program (PDSP)
T7 sequence (P08172 whole entry): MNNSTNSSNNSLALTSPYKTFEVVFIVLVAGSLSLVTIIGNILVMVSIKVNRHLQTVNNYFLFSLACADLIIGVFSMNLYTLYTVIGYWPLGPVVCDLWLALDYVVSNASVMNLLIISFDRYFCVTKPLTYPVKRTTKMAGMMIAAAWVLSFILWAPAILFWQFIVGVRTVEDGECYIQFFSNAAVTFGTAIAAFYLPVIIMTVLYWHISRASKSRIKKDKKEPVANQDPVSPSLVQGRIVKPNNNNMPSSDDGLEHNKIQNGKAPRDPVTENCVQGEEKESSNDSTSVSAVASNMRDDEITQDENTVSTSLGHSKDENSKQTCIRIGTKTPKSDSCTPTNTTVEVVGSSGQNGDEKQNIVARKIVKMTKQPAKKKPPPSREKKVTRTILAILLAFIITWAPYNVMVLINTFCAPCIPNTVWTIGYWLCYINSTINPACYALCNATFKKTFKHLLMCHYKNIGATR
From the text: as §1

NET = target: T8, NET (Homo sapiens, UniProt P23975); test: PDSP orthosteric binding screen
T8 construct: Psychoactive Drug Screening Program (PDSP)
T8 sequence (P23975 whole entry): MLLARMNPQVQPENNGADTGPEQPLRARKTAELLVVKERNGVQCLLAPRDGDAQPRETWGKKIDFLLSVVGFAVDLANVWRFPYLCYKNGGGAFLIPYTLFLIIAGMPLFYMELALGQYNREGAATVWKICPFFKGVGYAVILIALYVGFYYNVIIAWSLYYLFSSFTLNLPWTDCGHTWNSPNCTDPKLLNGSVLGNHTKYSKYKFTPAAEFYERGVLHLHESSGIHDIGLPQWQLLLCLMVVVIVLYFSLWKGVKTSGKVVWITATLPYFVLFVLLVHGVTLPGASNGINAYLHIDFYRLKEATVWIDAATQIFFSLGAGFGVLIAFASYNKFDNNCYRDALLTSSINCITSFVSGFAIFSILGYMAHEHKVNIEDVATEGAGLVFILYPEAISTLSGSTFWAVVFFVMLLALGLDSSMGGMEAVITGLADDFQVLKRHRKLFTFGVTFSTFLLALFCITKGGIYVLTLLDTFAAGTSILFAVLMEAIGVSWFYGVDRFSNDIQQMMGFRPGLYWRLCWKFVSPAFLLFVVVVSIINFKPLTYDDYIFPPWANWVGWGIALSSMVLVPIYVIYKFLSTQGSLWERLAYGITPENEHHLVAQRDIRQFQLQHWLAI
From the text: as §1

PBR = target: T9, PBR (Rattus norvegicus, UniProt P16257); test: PDSP orthosteric binding screen
T9 construct: Psychoactive Drug Screening Program (PDSP)
From the text: as §1

Sigma 1 = test: PDSP orthosteric binding screen
From the text: as §1

Chain of V2 (P30518 whole entry): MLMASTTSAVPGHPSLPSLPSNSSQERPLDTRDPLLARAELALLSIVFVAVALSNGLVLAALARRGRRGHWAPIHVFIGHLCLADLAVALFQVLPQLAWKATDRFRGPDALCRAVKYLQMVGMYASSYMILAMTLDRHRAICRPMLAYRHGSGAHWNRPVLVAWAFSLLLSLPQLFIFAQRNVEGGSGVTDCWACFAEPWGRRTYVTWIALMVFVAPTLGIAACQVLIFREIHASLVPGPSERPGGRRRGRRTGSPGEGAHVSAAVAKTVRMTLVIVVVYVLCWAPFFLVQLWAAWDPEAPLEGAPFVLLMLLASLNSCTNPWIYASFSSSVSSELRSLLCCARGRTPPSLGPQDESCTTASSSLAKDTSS

## Cl.Cn1ncc2c1Nc1ccccc1NC2 [SOC-1]
[1]
  half-life at 500 nM: > 6 h
V2
  affinity for the orthosteric binding site of V2: Nor does SOC-1 show any affinity
OTR
  agonist, antagonist or positive allosteric modulator activity at OTR: not an agonist or antagonist at OTRs, nor a positive allosteric modulator of the OTR
Rat hypothalamic neurons
  Ca^2+ levels: did not reliably alter Ca^2+ levels
  IP1 levels: did not alter IP1 levels
  basal cAMP: able to decrease basal cAMP
  forskolin-stimulated cAMP: did not reliably decrease forskolin-stimulated cAMP
rats
  conditioned place preference: does not produce a conditioned place preference
Sprague Dawley rats; 1 mg/kg IV
  Hunched posture or gait- mild (incidence): 0
  Number of abnormalities detected: (incidence): 3
  Palpebral closure- mild/moderate (incidence): 0
  Piloerection- mild (incidence): 0
  Reduced activity- mild (incidence): 0
Sprague Dawley rats; 3 mg/kg IV
  Hunched posture or gait- mild (incidence): 0
  Number of abnormalities detected: (incidence): 3
  Palpebral closure- mild/moderate (incidence): 0
  Piloerection- mild (incidence): 0
  Reduced activity- mild (incidence): 0
Sprague Dawley rats; 10 mg/kg IV in 0.9% saline
  reaction at the time of dose administration: exaggerated flinch reaction and vocalisation
Sprague Dawley rats; 10 mg/kg IV
  Hunched posture or gait- mild (incidence): 3
  Number of abnormalities detected: (incidence): 0
  Palpebral closure- mild/moderate (incidence): 0
  Piloerection- mild (incidence): 3
  Reduced activity- mild (incidence): 0
Sprague Dawley rats; 30 mg/kg IV
  Hunched posture or gait- mild (incidence): 0
  Number of abnormalities detected: (incidence): 0
  Palpebral closure- mild/moderate (incidence): 1
  Piloerection- mild (incidence): 3
  Reduced activity- mild (incidence): 2
Sprague Dawley rats; 1, 3, 10 and 30 mg/kg IV
  effect on body weight: no effects of SOC-1 test item treatment on body weight
  injection site reactions: no findings of injection site reactions
  morbidity and mortality: no unscheduled deaths or findings of morbidity
  tolerability: tolerated in this study at all dose levels
Sprague Dawley rats; 10 and 30 mg/kg IV
  clinical findings post-dose on Study Day 1: piloerection, hunched posture and gait and palpebral closure
  time to resolution of clinical findings post-dose: 4 to 24 h
Sprague Dawley rats; Group 1 (1 mg/kg IV), day 1
  Bodyweight, Mean: 208.233 g
Sprague Dawley rats; Group 1 (1 mg/kg IV), day 2
  Bodyweight, Mean: 203.733 g
Sprague Dawley rats; Group 1 (1 mg/kg IV), day 3
  Bodyweight, Mean: 204.933 g
Sprague Dawley rats; Group 1 (1 mg/kg IV), day 4
  Bodyweight, Mean: 208.100 g
Sprague Dawley rats; Group 1 (1 mg/kg IV), day 5
  Bodyweight, Mean: 210.467 g
Sprague Dawley rats; Group 1 (1 mg/kg IV), day 6
  Bodyweight, Mean: 215.300 g
Sprague Dawley rats; Group 1 (1 mg/kg IV), day 7
  Bodyweight, Mean: 209.833 g
Sprague Dawley rats; Group 1 (1 mg/kg IV), day 8
  Bodyweight, Mean: 216.633 g
Sprague Dawley rats; Group 2 (3 mg/kg IV), day 1
  Bodyweight, Mean: 196.867 g
Sprague Dawley rats; Group 2 (3 mg/kg IV), day 2
  Bodyweight, Mean: 193.700 g
Sprague Dawley rats; Group 2 (3 mg/kg IV), day 3
  Bodyweight, Mean: 198.733 g
Sprague Dawley rats; Group 2 (3 mg/kg IV), day 4
  Bodyweight, Mean: 199.233 g
Sprague Dawley rats; Group 2 (3 mg/kg IV), day 5
  Bodyweight, Mean: 201.200 g
Sprague Dawley rats; Group 2 (3 mg/kg IV), day 6
  Bodyweight, Mean: 204.733 g
Sprague Dawley rats; Group 2 (3 mg/kg IV), day 7
  Bodyweight, Mean: 201.967 g
Sprague Dawley rats; Group 2 (3 mg/kg IV), day 8
  Bodyweight, Mean: 206.333 g
Sprague Dawley rats; Group 3 (10 mg/kg IV), day 1
  Bodyweight, Mean: 205.933 g
Sprague Dawley rats; Group 3 (10 mg/kg IV), day 2
  Bodyweight, Mean: 207.267 g
Sprague Dawley rats; Group 3 (10 mg/kg IV), day 3
  Bodyweight, Mean: 214.533 g
Sprague Dawley rats; Group 3 (10 mg/kg IV), day 4
  Bodyweight, Mean: 216.100 g
Sprague Dawley rats; Group 3 (10 mg/kg IV), day 5
  Bodyweight, Mean: 211.733 g
Sprague Dawley rats; Group 3 (10 mg/kg IV), day 6
  Bodyweight, Mean: 213.433 g
Sprague Dawley rats; Group 3 (10 mg/kg IV), day 7
  Bodyweight, Mean: 219.000 g
Sprague Dawley rats; Group 3 (10 mg/kg IV), day 8
  Bodyweight, Mean: 218.900 g
Sprague Dawley rats; Group 4 (30 mg/kg IV), day 1
  Bodyweight, Mean: 206.833 g
Sprague Dawley rats; Group 4 (30 mg/kg IV), day 2
  Bodyweight, Mean: 202.567 g
Sprague Dawley rats; Group 4 (30 mg/kg IV), day 3
  Bodyweight, Mean: 210.967 g
Sprague Dawley rats; Group 4 (30 mg/kg IV), day 4
  Bodyweight, Mean: 216.500 g
Sprague Dawley rats; Group 4 (30 mg/kg IV), day 5
  Bodyweight, Mean: 209.667 g
Sprague Dawley rats; Group 4 (30 mg/kg IV), day 6
  Bodyweight, Mean: 213.367 g
Sprague Dawley rats; Group 4 (30 mg/kg IV), day 7
  Bodyweight, Mean: 222.300 g
Sprague Dawley rats; Group 4 (30 mg/kg IV), day 8
  Bodyweight, Mean: 219.767 g
Sprague Dawley rats; bolus intravenous injection, female rats
  acute tolerated dose: at least 30 mg/kg
5-HT7
  affinity for 5-HT7: no notable affinity
5-ht1e
  affinity for 5-ht1e: no notable affinity
Alpha2B
  affinity for Alpha2B: no notable affinity
BZP Rat Brain Site
  affinity for BZP Rat Brain Site: no notable affinity
Beta1
  affinity for Beta1: no notable affinity
Beta3
  affinity for Beta3: no notable affinity
GABAA
  affinity for GABAA: no notable affinity
M2
  affinity for M2: no notable affinity
NET
  affinity for NET: no notable affinity
PBR
  affinity for PBR: no notable affinity
Sigma 1
  affinity for Sigma 1: no notable affinity
